Data reported in patent US20090069328A1, “ALPHA-ALKYL SUBSTITUTED N-ACYLTRYPTOPHANOLS” (priority 2007, published 2009).

biological target: T1, human FSH receptor (Homo sapiens, UniProt P23945); assay: HTRF assay for measuring cAMP in cells (FSH antagonism); assay type: cell-based; settings: hFSHR clone 16 cells (CHO cells stably transfected with the human FSH receptor); in the presence of 1e-9 mol/l hFSH; cAMP readout; read-out: IC50 (FSH antagonistic effect in the HTRF assay)
T1 construct: expressed in transfected cells; host or cells: CHO cells (hFSHR clone 16)
T1 sequence (P23945 18-695): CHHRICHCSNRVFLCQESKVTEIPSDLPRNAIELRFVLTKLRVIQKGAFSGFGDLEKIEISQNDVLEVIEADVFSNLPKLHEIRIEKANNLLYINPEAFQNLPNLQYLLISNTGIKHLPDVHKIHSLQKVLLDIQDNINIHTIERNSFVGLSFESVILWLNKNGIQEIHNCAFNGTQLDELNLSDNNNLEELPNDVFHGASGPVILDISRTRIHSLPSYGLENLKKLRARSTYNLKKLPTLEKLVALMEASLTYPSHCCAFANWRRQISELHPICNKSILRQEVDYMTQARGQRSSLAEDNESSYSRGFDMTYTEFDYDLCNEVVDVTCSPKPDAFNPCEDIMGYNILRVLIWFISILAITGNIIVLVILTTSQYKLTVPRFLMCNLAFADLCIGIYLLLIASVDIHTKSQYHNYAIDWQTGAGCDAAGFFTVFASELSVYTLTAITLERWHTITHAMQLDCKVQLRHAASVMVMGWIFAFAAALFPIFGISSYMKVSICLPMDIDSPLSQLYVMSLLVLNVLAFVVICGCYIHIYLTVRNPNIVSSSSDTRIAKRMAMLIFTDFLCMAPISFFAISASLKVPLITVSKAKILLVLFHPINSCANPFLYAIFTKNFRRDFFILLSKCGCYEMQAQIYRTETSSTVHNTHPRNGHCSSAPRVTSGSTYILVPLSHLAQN
Procedure: HTRF Assay for Measuring cAMP in Cells
The method is based on a competitive immunoassay between native cAMP, which has been produced by the cells, and cAMP which is labelled with cAMPD2 conjugate. The tracer binding was visualized by a monoclonal antibody, anti-cAMP labelled with cryptate [HTRF=homogeneous time-resolved fluorescence].
The specific signal is inversely proportional to the cAMP concentration of the samples employed.
The 665 nm/620 nm fluorescence ratio was evaluated.
The following material was used: 96-well plates for the tissue culture, 96-well plates with black edge and black base (e.g. Fluotrac 600 from Greiner), 96-well plates for the substance dilutions of polypropylene and cAMP Femtomolar (4000wells Kit, CIS Bio International #62AM5PEJ).
The following reagents were used: BSA (bovine serum albumin) Fraction V protease-free, IBMX (3-isobutyl-1-methylxanthine), hFSH (human follicle stimulating hormone), Triton X-100 analytical grade, potassium fluoride analytical grade, G 418 (Geneticin) and Accutase.
Buffer 1 (washing and testing buffer) contained PBS, 1 mM CaCl2, 1 mM MgCl2, 0.2% glucose; 0.1% BSA, 1 mM IBMX.
Buffer 2 (2× lysis buffer) contained 1% Triton X-100 in PBS (without CaCl2 and MgCl2).
Buffer 3 (assay buffer) contained 50 mM potassium phosphate buffer (pH 7.0); 800 mM potassium fluoride; 0.2% BSA (always added fresh).
On day 1, the cells were seeded in 96-well plates (3×10^4 cells per well hFSHR clone 16 cells (CHO cells stably transfected with the human FSH receptor in 150 μl of medium). The next day, test substance dilutions were made up. For this purpose, all the substances were diluted in ice-cold buffer 1 (with or without hFSH), and the substance dilutions were placed on ice until applied to the cells.
The cell supernatant was then aspirated off, and the cells were washed 2× with 200 μl of buffer 1. The cells were treated with 60 μl of the appropriate substance concentrations at 37° C. for 2 h. The cells were then lysed with 60 μl of buffer 2 (put onto the supernatant) (on a plate shaker at RT for 30 min).
The test conjugates (cAMP-D2 and anti-cAMP cryptate, CIS Bio) were diluted in buffer 3 in accordance with the manufacturers' information. The actual mixture for measurement was pipetted into a black 96-well plate (in each case 15 μl of the cell lysate diluted with 35 μl of buffer 1; firstly 25 μl of cAMP-D2 conjugate were pipetted and, after 10 min, 25 μl of the anti-cAMP cryptate were added). This is followed by incubation at RT for 90 minutes. The measurement was carried out in a PheraStar (BMG).
Dose-effect curve (hFSH) for the human receptor: 1e-8, 3e-9, 1e-9, 3e-10, 1e-10, 3e-11, 1e-11, 3e-12 mol/l.
The test substances were employed in suitable dilutions in the absence (test for agonism) and in the presence of 1e-9 mol/l hFSH.
The values of the well ratio were averaged and then entered directly in SigmaPlot versus the concentrations. The maximum and minimum values were determined for each plate, and half the difference is to be regarded as IC50.

IC50 [nM]	Structure (SMILES)
50	COc1ccc(-c2ccc(OC(C)C)c(C(=O)NC(C)(CO)Cc3c[nH]c4ccccc34)c2)cc1OC (racemic) [Example 4, 4-Isopropoxy-3′,4′-dimethoxy-biphenyl-3-carboxylic acid [1-hydroxymethyl-2-(1H-indol-3-yl)-1-methyl-ethyl]-amide]
1000	CC(C)Oc1ccc(C#Cc2ccccc2)cc1C(=O)NC(C)(CO)Cc1c[nH]c2ccccc12 (centres unmarked) [Example 1, N-[1-Hydroxymethyl-2-(1H-indol-3-yl)-1-methyl-ethyl]-2-isopropoxy-5-phenylethynyl-benzamide]
1000	CNC(=O)c1cc(F)cc(-c2ccc(OC(C)C)c(C(=O)NC(C)(CO)Cc3c[nH]c4ccccc34)c2)c1 (centres unmarked) [Example 2, 5′-Fluoro-4-isopropoxy-biphenyl-3,3′-dicarboxylic acid 3-{[2-hydroxy-1-(1H-indol-3-ylmethyl)-1-methyl-ethyl]-amide} 3′-methylamide]
100	CNC(=O)c1ccc(-c2ccc(OC(C)C)c(C(=O)NC(C)(CO)Cc3c[nH]c4ccccc34)c2)cc1Cl (centres unmarked) [Example 3, 3′-Chloro-4-isopropoxy-biphenyl-3,4′-dicarboxylic acid 3-{[2-hydroxy-1-(1H-indol-3-ylmethyl)-1-methyl-ethyl]-amide}-4′-methylamide]
200	COc1ccccc1C#Cc1ccc(OC(C)C)c(C(=O)NC(C)(CO)Cc2c[nH]c3ccccc23)c1 (centres unmarked) [Example 5, N-[1-Hydroxymethyl-2-(1H-indol-3-yl)-1-methyl-ethyl]-2-isopropoxy-5-(2-methoxy-phenylethynyl)-benzamide]
